Ends that are not written are not given here.
Columns and labels:
TLR4 = biological target: T1, TLR4 (Mus musculus, UniProt Q9QUK6); test: Cytokine secretion (ELISA) in LPS-stimulated RAW264.7 cells; format: cell-based; conditions: FIG. 2E
T1 construct: endogenous in cells; host or cells: RAW264.7
T1 sequence (Q9QUK6 26-835): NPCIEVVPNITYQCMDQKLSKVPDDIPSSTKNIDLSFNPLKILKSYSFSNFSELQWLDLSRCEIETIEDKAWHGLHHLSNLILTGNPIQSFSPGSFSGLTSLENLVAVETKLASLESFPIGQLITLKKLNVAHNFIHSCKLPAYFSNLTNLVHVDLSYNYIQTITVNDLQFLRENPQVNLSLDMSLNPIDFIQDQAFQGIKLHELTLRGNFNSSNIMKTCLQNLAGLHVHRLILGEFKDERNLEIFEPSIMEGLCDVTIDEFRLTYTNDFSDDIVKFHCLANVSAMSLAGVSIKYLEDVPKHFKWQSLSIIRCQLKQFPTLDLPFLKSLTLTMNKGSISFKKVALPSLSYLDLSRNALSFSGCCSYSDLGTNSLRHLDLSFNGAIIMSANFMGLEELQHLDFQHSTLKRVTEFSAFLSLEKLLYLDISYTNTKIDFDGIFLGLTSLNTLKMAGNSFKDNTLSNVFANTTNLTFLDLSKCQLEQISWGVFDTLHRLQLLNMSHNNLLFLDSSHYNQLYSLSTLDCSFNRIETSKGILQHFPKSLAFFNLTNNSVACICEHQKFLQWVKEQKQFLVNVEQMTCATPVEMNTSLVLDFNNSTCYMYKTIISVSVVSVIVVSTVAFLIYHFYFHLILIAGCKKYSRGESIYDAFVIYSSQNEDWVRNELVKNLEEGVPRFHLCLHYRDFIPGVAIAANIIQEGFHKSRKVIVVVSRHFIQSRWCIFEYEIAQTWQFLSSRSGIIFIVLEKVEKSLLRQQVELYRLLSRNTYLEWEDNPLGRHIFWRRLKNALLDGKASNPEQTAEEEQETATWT
T1 sequence (Q9JHF9 19-160 partner): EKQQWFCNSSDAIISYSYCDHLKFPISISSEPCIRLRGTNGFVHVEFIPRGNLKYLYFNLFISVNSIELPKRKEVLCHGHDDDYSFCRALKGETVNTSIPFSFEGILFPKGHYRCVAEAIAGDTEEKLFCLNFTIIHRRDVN
Protocol: THP-1-derived macrophages and RAW264.7 cells were dispensed into 96-well plates (BD Biosciences) at a density of 2×10^5 cells/well and cultured overnight. After 24 hours of treatment, IL-6 secretion was analyzed using Mouse IL-6 ELISA MAX™ Deluxe (BioLegend, San Diego, Calif., USA), and TNF-α production was evaluated using the Mouse TNF alpha ELISA Ready-SET-GO!® kit (eBioscience, San Diego, Calif., USA). Then, the plate was analyzed at each wavelength using a microplate spectrophotometer system (Molecular Devices).

HEK-Blue™ hTLR4 cells = test: Cell viability assay (MTT/MTS), HEK-BLUE hTLR4 cells; format: cell-based, human; conditions: FIG. 2A
Protocol: (§1) HEK-BLUE™ hTLR4 cells were dispensed at a density of 5×10^4 cells/well, and RAW264.7 cells and THP-1 cells were dispensed thereinto at a density of 2×10^5 cells/well. All cells were cultured overnight in 96-well plates (BD Biosciences, San Jose, Calif., USA). Cell viability was determined using colorimetric […] (MTT) assay (Sigma-Aldrich) and/or MTS (3-(4,5-dimethylthiazol-2-yl)-5-(3-carboxymethoxyphenyl)-2-(4-sulfophenyl)-2H-tetrazolium) (Promega Madison, Wis., USA), which was performed as described previously (Kwon, H. K. et al., Toxicological sciences: an official journal of the Society of Toxicology 148, 204-219 (2015)).

RAW264.7 cells = test: Cell viability assay (MTT/MTS), RAW264.7 cells; format: cell-based, mouse; conditions: concentration of 50 μM or below; FIG. 2B
Protocol: as §1

THP-1 cells = test: Cell viability assay (MTT/MTS), THP-1 cells; format: cell-based, human; conditions: FIG. 2C
Protocol: as §1

[1] = tested on: IMQ-induced psoriasis in C57BL/6 mice; test: Imiquimod-induced psoriasis mouse model; format: in vivo; conditions: FIG. 5D
Protocol: 6-7 week old C57BL/6 mice were purchased from Orient Bio Inc. (Seongnam, Korea). The mice were housed under specific pathogen-free conditions and provided ad libitum with a standard laboratory diet (STD). All the animal experiments were approved by the Institutional Animal Care and Use Committee (IACUC) of Ajou University (Approval No. 2017-0002). 62.5 mg of ALDARA™ cream (including 5% IMQ; Aldara, 3M Pharmaceutical LLC.) was applied for five consecutive days, resulting in symptoms similar to psoriasis. The normal group was not treated with IMQ but only injected with PBS. […] Factors such as erythema, scaling, wrinkles, and thickening were independently scored from 0 to 4: 0, none; 1, a little; 2, middle; 3, significant; 4, very prominent. Erythema, scaling, and thickness were scored under the close supervision of an experienced researcher. […]
A skin sample obtained from the dorsal lesion of each mouse was fixed in 4% paraformaldehyde solution, embedded in paraffin, and sectioned at a thickness of 7 μm on a glass slide. […] The thickness of the skin was measured using a Leica DMi8 fluorescence microscope which utilizes a Leica LAS X Hardware Configurator. IMQ-mediated inflammation in the skin was evaluated using a mouse-specific HRC/DAB Detection IHC Kit (Abcam, Cat. No. AB64259) with primary antibodies recognizing CD68, CD4, and IL-17. […]

| Substance | inhibitory effect on LPS-stimulated RAW 264.7 cells (TLR4) | toxicity in HEK-Blue hTLR4 cells (HEK-Blue™ hTLR4 cells) | cytotoxic effect in RAW264.7 cells (RAW264.7 cells) | toxicity in THP-1 cells (THP-1 cells) | body weight [1] |
| --- | --- | --- | --- | --- | --- |
| PFVYLI (cell penetrating peptide) | did not show any inhibitory effect | – | – | – | – |
| RQIKIWFQNRRMKWKKPWCKYQMLQALT [MIP2] | – | do not show toxicity | absence of a cytotoxic effect | does not show toxicity | no significant difference compared to PBS- and MTX-treated mice |
